Assay results reported in ChEMBL document CHEMBL4138170, “Synthesis and biological evaluation of novel alkylated polyamine analogues as potential anticancer agents” (Eur J Med Chem, 2018).

How the values were obtained:
K562 = experiment: Antiproliferative activity against human K562 cells after 48 hrs by MTT assay; type: functional, cell-based; settings: K562, 48 h
SMMC-7721 = experiment: Antiproliferative activity against human SMMC7721 cells after 48 hrs by MTT assay; type: functional, cell-based; settings: SMMC-7721, 48 h
HepG2 = experiment: Antiproliferative activity against human HepG2 cells after 48 hrs by MTT assay; type: functional, cell-based; settings: HepG2, 48 h
HCT-116 = experiment: Antiproliferative activity against human HCT116 cells after 48 hrs by MTT assay; type: functional, cell-based; settings: HCT-116, 48 h
H22 [1] = experiment: Antitumor activity against mouse H22 cells implanted in Swiss mouse assessed as tumor growth inhibition at 5 mg/kg/day, iv administered via tail vein for 7 days relative to control; type: functional; settings: 168 h, read-out: TGI
H22 [2] = experiment: Antitumor activity against mouse H22 cells implanted in Swiss mouse assessed as inhibition of lung metastasis at 5 mg/kg/day, iv administered via tail vein for 7 days relative to control; type: functional; settings: 168 h

IC50 (K562)	IC50 (SMMC-7721)	IC50 (HepG2)	IC50 (HCT-116)	SMILES	inhibition in vivo at 5 mg/kg/day (H22 [1])	inhibition in vivo at 5 mg/kg/day (H22 [2])
32.4 µM	18.8 µM	75.3 µM	20.4 µM	CCCNCCCCNCCCCNCCCCN1C(=O)c2cccc3cccc(c23)C1=O	–	–
7.71 µM	6.6 µM	7.66 µM	5.2 µM	CCCNCCCNCCCCNCCCN1C(=O)c2cccc3cccc(c23)C1=O	–	–

SMILES	IC50 (K562)	IC50 (SMMC-7721)	IC50 (HepG2)	IC50 (HCT-116)	inhibition in vivo at 5 mg/kg/day (H22 [1])	inhibition in vivo at 5 mg/kg/day (H22 [2])
CN(C)CCN1C(=O)c2cccc3cc(N)cc(c23)C1=O [AMONAFIDE]	10.1 µM	–	–	6.86 µM	45.1%	41.2%
